Test results: patent US10800791B2, “Triazole ACC inhibitors and uses thereof” (Gilead Apollo, LLC, priority 2015, dated 2020)
≈ marks a conversion by molar mass, not a printed value. Like-named read-outs stand apart in the source and are kept apart here.

Assays:
human (hACC2) = human (hACC2) (Homo sapiens, UniProt O00763); assay: In vitro ACC inhibition assay (ADP-Glo), hACC2; format: biochemical; details: 5 nM ACC2, 20 μM ATP, 20 μM acetyl-CoA
Procedure: The detailed procedure is as follows. […] 10 μL ADP glo reagent was added. […] 20 μL kinase detection reagent was added.

C. krusei = assay: Antifungal Activity Assay (broth microtiter MIC), C. krusei; format: cell-based, Candida krusei; details: Pichia kudriavzevii, ATCC6258, 48 h
Summary of the method: (§1)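 MICs were scored by eye at 48 h relative to the growth control. Plates followed CLSI M27-A3, with Candida suspensions in RPMI 1640+MOPS giving a final 2.5×10^3 CFU/mL; the colonies came from Sabouraud agar grown overnight at 35 °C.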

C. parapsilosis = assay: Antifungal Activity Assay (broth microtiter MIC), C. parapsilosis; format: cell-based, Candida parapsilosis; details: Lodderomyces parapsilosis, ATCC22019, 48 h
Summary of the method: as §1

Botrtyis cinerea (Bc) = assay: Growth inhibition assay of fungal pathogens, Bc; format: cell-based; details: 48 h
Summary of the method: (§2)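 Spore suspension in 17% V8 liquid media; cpd final 50/10/2 or 2/0.4/0.08 ppm, 2% DMSO. OD600 + visual, 24 & 48 h; % inhibition at 48 h vs 2% DMSO ctrl.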

[1] = test system: Fusarium moniliforme (Fm); assay: Growth inhibition assay of fungal pathogens, Fm; format: cell-based; details: for IC90: Fusarium verticillioides, 48 h, read-out: Concentration at 90% Inhibition Fm
Summary of the method: as §2

[2] = test system: Fusarium virguliforme (Fv); assay: Growth inhibition assay of fungal pathogens, Fv; format: cell-based; details: 48 h
Summary of the method: as §2

[3] = test system: Phytophthora capsici (Pc); assay: Growth inhibition assay of fungal pathogens, Pc; format: cell-based; details: 48 h
Summary of the method: as §2

Rhizoctonia solani (Rs) = assay: Growth inhibition assay of fungal pathogens, Rs; format: cell-based; details: 48 h
Septoria tritici (St) = assay: Growth inhibition assay of fungal pathogens, St; format: cell-based; details: Zymoseptoria tritici, 48 h
Summary of the method: as §2

fungal (fACC2) = fungal (fACC2) (UniProt Q00955); details: read-out: fACC2 (in vitro ACC2 Inhibition Assay, IC50), ADP-Glo, 5 nM ACC2, 20 μM ATP, 20 μM acetyl-CoA
Sequence of fungal (fACC2) (Q00955 whole entry): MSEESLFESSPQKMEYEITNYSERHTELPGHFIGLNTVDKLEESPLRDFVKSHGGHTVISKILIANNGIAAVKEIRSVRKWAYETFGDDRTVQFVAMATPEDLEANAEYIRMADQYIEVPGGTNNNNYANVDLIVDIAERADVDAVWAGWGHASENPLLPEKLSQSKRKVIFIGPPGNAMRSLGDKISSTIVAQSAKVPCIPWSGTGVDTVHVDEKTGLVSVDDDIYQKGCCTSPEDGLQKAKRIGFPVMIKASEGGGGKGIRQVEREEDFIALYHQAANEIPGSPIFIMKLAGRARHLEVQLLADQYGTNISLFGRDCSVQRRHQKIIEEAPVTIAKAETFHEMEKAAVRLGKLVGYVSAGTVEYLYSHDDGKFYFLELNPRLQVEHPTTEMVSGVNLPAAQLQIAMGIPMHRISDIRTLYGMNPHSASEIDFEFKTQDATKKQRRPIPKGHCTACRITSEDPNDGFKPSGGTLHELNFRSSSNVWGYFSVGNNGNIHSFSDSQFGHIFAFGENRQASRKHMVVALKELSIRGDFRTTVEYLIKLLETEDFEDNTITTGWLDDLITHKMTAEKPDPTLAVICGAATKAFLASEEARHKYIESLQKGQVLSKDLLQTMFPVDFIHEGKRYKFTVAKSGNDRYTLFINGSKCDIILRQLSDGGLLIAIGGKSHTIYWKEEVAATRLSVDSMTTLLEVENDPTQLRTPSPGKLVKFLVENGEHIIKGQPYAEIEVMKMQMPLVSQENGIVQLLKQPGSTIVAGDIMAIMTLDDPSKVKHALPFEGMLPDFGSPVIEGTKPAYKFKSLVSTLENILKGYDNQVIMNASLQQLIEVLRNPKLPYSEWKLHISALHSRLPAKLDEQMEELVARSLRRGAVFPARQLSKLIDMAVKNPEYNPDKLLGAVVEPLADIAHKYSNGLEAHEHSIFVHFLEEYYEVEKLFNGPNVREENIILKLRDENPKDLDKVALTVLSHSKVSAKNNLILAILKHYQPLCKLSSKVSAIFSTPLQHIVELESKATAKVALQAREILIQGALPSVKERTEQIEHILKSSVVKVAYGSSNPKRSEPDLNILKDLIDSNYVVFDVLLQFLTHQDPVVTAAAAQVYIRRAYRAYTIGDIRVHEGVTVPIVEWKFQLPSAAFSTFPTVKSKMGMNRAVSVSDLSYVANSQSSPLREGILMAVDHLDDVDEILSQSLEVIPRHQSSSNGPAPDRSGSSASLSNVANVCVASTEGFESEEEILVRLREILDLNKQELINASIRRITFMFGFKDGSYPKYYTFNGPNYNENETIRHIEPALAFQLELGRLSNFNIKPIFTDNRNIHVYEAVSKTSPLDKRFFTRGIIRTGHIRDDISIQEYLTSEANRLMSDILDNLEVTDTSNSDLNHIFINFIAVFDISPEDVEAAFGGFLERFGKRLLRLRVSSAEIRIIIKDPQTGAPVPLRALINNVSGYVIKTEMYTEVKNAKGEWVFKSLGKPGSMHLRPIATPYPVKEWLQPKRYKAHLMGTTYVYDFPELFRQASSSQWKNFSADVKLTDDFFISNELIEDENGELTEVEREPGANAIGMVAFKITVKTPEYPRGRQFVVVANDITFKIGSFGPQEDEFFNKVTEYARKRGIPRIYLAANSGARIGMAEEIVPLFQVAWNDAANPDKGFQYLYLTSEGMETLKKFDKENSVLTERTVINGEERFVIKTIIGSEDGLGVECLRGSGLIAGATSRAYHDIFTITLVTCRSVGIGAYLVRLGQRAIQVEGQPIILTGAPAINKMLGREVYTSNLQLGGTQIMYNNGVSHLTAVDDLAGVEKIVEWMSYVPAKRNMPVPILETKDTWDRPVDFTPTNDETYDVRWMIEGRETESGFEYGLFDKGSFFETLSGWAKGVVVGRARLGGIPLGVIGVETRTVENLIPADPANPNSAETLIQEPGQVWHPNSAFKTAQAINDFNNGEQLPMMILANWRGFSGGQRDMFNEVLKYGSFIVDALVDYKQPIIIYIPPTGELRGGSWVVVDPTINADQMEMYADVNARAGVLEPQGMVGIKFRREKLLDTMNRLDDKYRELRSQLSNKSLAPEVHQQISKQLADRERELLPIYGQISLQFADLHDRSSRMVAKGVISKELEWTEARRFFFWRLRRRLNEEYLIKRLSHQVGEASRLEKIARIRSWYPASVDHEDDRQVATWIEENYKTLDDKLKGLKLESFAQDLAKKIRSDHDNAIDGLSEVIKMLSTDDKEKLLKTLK

[4] = Fusarium moniliforme, growth inhibition at 48 hours vs 2% DMSO control
[5] = read-out: MIC, C. krusei ATCC 6258, Table 3a, 3 replicates, MIC recorded at 48 h
[6] = read-out: MIC, C. krusei ATCC 6258, Table 3b (additional results), 3 replicates, MIC recorded at 48 h
[7] = read-out: MIC, C. parapsilosis ATCC 22019, Table 3a, 3 replicates, MIC recorded at 48 h
[8] = read-out: MIC, C. parapsilosis ATCC 22019, Table 3b (additional results), 3 replicates, MIC recorded at 48 h
[9] = read-out: Concentration at 90% Inhibition Bc, Botrtyis cinerea, growth inhibition at 48 hours vs 2% DMSO control
[10] = read-out: Concentration at 90% Inhibition Bc, Botrtyis cinerea, growth inhibition vs 2% DMSO control at 48 hours
[11] = read-out: Concentration at 90% Inhibition Fv, Fusarium virguliforme, growth inhibition at 48 hours vs 2% DMSO control
[12] = read-out: Concentration at 90% Inhibition Fv, Fusarium virguliforme, growth inhibition vs 2% DMSO control at 48 hours
[13] = read-out: Concentration at 90% Inhibition Pc, Phytophthora capsici, growth inhibition at 48 hours vs 2% DMSO control
[14] = read-out: Concentration at 90% Inhibition Pc, Phytophthora capsici, growth inhibition vs 2% DMSO control at 48 hours
[15] = read-out: Concentration at 90% Inhibition Rs, Rhizoctonia solani, mycelial plugs, growth inhibition at 48 hours vs 2% DMSO control
[16] = read-out: Concentration at 90% Inhibition Rs, Rhizoctonia solani, mycelial plugs, growth inhibition vs 2% DMSO control at 48 hours
[17] = read-out: Concentration at 90% Inhibition St, Septoria tritici, growth inhibition at 48 hours vs 2% DMSO control
[18] = read-out: Concentration at 90% Inhibition St, Septoria tritici, growth inhibition vs 2% DMSO control at 48 hours

Sequence of human (hACC2) (O00763 whole entry): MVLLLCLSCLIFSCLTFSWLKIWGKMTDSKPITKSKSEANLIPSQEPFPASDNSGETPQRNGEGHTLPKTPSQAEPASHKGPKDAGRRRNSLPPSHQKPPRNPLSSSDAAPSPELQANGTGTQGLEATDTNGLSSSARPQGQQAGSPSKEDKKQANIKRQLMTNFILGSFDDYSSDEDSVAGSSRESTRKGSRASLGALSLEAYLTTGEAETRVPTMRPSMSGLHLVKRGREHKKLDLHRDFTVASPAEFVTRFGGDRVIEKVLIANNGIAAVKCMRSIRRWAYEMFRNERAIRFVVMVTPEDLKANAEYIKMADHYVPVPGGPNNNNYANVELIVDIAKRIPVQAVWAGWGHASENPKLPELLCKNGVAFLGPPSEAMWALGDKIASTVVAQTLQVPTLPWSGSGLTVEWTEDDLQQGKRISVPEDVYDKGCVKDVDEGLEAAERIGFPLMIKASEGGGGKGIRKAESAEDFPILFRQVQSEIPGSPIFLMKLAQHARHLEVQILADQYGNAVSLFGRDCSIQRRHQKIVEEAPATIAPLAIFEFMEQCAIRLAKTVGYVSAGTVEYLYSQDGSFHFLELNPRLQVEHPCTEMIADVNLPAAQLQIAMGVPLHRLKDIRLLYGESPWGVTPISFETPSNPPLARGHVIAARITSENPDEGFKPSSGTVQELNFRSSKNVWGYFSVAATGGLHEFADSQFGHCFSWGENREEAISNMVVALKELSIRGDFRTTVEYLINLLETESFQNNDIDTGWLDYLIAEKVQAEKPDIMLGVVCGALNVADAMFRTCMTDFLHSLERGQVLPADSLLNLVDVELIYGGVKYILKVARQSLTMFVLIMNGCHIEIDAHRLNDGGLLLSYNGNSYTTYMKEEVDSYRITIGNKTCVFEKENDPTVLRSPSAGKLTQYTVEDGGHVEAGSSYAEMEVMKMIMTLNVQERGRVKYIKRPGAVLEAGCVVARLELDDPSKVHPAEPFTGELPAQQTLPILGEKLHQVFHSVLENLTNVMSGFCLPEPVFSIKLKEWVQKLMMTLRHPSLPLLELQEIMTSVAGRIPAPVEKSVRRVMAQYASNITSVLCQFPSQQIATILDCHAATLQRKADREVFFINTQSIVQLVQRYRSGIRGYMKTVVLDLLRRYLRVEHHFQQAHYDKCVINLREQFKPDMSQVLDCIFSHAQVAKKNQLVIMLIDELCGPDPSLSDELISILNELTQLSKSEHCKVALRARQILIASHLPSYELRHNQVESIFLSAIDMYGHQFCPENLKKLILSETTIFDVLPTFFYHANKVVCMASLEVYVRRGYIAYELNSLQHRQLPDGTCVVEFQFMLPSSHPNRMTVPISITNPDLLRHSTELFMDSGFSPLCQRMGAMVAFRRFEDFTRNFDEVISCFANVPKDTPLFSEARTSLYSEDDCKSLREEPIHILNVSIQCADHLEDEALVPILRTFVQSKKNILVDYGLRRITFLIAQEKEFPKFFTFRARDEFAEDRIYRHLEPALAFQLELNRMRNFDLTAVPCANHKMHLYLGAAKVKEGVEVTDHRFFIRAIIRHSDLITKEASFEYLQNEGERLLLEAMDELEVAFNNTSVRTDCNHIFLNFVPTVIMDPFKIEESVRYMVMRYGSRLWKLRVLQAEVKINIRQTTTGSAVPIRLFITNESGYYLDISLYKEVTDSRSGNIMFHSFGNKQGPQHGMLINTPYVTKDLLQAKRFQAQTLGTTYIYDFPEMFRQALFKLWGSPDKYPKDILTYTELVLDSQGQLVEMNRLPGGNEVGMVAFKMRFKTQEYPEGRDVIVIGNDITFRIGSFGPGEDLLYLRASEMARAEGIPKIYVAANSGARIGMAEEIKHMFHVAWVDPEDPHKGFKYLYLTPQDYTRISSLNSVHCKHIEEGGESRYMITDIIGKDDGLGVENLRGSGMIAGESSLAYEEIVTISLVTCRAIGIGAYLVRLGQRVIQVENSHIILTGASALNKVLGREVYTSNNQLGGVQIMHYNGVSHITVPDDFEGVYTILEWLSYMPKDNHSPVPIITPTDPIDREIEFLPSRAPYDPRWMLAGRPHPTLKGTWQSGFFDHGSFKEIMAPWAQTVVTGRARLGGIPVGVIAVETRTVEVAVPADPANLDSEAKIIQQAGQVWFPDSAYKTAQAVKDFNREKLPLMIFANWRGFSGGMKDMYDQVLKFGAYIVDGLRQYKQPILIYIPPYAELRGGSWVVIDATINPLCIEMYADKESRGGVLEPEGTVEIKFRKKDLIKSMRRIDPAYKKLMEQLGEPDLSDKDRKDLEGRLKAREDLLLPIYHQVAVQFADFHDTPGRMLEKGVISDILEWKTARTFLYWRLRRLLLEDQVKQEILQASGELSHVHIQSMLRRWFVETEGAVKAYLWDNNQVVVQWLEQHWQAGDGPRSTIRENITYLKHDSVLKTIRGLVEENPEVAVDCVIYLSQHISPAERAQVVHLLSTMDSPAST

Row | Compound | IC50 (human (hACC2); Table 2a) [nM] | IC50 (human (hACC2); Table 2b, additional results) [nM] | IC50 (fungal (fACC2); Table 2a) [nM] | IC50 (fungal (fACC2); Table 2b, additional results) [nM] | MIC (C. krusei; [5]) [µg/mL] | MIC (C. krusei; [6]) [µg/mL] | MIC (C. parapsilosis; [7]) [µg/mL] | MIC (C. parapsilosis; [8]) [µg/mL] | IC90 (Botrtyis cinerea (Bc); [9]) [µg/mL] | IC90 (Botrtyis cinerea (Bc); [10]) [µg/mL] | Concentration at 90% Inhibition Fm [1, 4] | IC90 [1] [µg/mL] | IC90 [2, 11] [µg/mL] | IC90 [2, 12] [µg/mL] | IC90 [3, 13] [µg/mL] | IC90 [3, 14] [µg/mL] | IC90 (Rhizoctonia solani (Rs); [15]) [µg/mL] | IC90 (Rhizoctonia solani (Rs); [16]) [µg/mL] | IC90 (Septoria tritici (St); [17]) [µg/mL] | IC90 (Septoria tritici (St); [18]) [µg/mL] | further results
1 | COc1ccc(F)cc1[C@H](Cn1c(=O)n(C(C)(C)C(=O)N2CCCC2)c(=O)c2c(C)c(-n3nccn3)sc21)OC[C@H](C)O [Compound I-48, 1-((R)-2-(5-fluoro-2-methoxyphenyl)-2-((S)-2-hydroxy-propoxy)ethyl)-5-methyl-3-(2-methyl-1-oxo-1-(pyrrolidin-1-yl)propan-2-yl)-6-(2H-1,2,3-triazol-2-yl)thieno[2,3-d]pyrimidine-2,4(1H,3H)-dione] | 5 to 10 | 5 to 10 | 0.4 to 1 | 0.3 to 1 |  |  |  |  |  |  |  |  |  |  |  |  |  |  |  |  | MIC (C. krusei; Table 3a, ATCC 6258, 3 replicates, MIC recorded at 48 h, read-out: MIC, C. krusei ATCC 6258): 1.1 to 2 µg/mL (≈ 1.79 to 3.25 µM); MIC (C. krusei; Table 3b (additional results), ATCC 6258, 3 replicates, MIC recorded at 48 h, read-out: MIC, C. krusei ATCC 6258): 2.01 to 4 µg/mL (≈ 3.27 to 6.51 µM); MIC (C. parapsilosis; Table 3a, ATCC 22019, 3 replicates, MIC recorded at 48 h, read-out: MIC, C. parapsilosis ATCC 22019): 2.1 to 4 µg/mL (≈ 3.42 to 6.51 µM); MIC (C. parapsilosis; Table 3b (additional results), ATCC 22019, 3 replicates, MIC recorded at 48 h, read-out: MIC, C. parapsilosis ATCC 22019): 1.01 to 2 µg/mL (≈ 1.64 to 3.25 µM); IC90 (Botrtyis cinerea (Bc); Botrtyis cinerea, growth inhibition at 48 hours vs 2% DMSO control, read-out: Concentration at 90% Inhibition Bc): 2 µg/mL (≈ 3.25 µM); IC90 (Botrtyis cinerea (Bc); Botrtyis cinerea, growth inhibition vs 2% DMSO control at 48 hours, read-out: Concentration at 90% Inhibition Bc): 2 µg/mL (≈ 3.25 µM); IC90 [1, 4]: 0.4 µg/mL (≈ 0.651 µM); IC90 ([1]; Fusarium moniliforme, growth inhibition vs 2% DMSO control at 48 hours): 0.4 µg/mL (≈ 0.651 µM); IC90 ([2]; growth inhibition at 48 hours vs 2% DMSO control, read-out: Concentration at 90% Inhibition Fv): 0.4 µg/mL (≈ 0.651 µM); IC90 ([2]; growth inhibition vs 2% DMSO control at 48 hours, read-out: Concentration at 90% Inhibition Fv): 0.4 µg/mL (≈ 0.651 µM); IC90 ([3]; growth inhibition at 48 hours vs 2% DMSO control, read-out: Concentration at 90% Inhibition Pc): > 50 µg/mL; IC90 ([3]; growth inhibition vs 2% DMSO control at 48 hours, read-out: Concentration at 90% Inhibition Pc): > 50 µg/mL; IC90 (Rhizoctonia solani (Rs); mycelial plugs, growth inhibition at 48 hours vs 2% DMSO control, read-out: Concentration at 90% Inhibition Rs): 2 µg/mL (≈ 3.25 µM); IC90 (Rhizoctonia solani (Rs); mycelial plugs, growth inhibition vs 2% DMSO control at 48 hours, read-out: Concentration at 90% Inhibition Rs): 10 µg/mL (≈ 16.3 µM); IC90 (Septoria tritici (St); Septoria tritici, growth inhibition at 48 hours vs 2% DMSO control, read-out: Concentration at 90% Inhibition St): > 50 µg/mL; IC90 (Septoria tritici (St); Septoria tritici, growth inhibition vs 2% DMSO control at 48 hours, read-out: Concentration at 90% Inhibition St): > 50 µg/mL
2 | COc1ccc(F)cc1[C@H](Cn1c(=O)n(C(C)(C)C(=O)N(C)C)c(=O)c2c(C)c(-n3nccn3)sc21)OC(C)C [Compound I-49, (R)-2-(1-(2-(5-fluoro-2-methoxyphenyl)-2-isopropoxy-ethyl)-5-methyl-2,4-dioxo-6-(2H-1,2,3-triazol-2-yl)-1,4-dihydrothieno[2,3-d]pyrimi-din-3(2H)-yl)-N,N,2-trimethylpropanamide] | 10 to 40 | 10 to 40 | 1 to 5 | 1 to 5 | 2.1 to 4 (≈ 3.67 to 6.98 µM) | 1.01 to 2 (≈ 1.76 to 3.49 µM) | 2.1 to 4 (≈ 3.67 to 6.98 µM) | > 4.01 | 0.4 (≈ 0.698 µM) | 0.4 (≈ 0.698 µM) | A (compound concentration of 0.4 ppm at 90% inhibition of fungal pathogens) | 0.4 (≈ 0.698 µM) | 0.4 (≈ 0.698 µM) | 0.4 (≈ 0.698 µM) | > 50 | > 50 | 0.4 (≈ 0.698 µM) | 0.4 (≈ 0.698 µM) | > 50 | > 50 | 
3 | CNC(=O)C(C)(C)n1c(=O)c2c(C)c(-n3nccn3)sc2n(C[C@H](OC(C)C)c2cc(F)ccc2OC)c1=O [Compound I-50, (R)-2-(1-(2-(5-fluoro-2-methoxyphenyl)-2-isopropoxy-ethyl)-5-methyl-2,4-dioxo-6-(2H-1,2,3-triazol-2-yl)-1,4-dihydrothieno[2,3-d]pyrimidin-3(2H)-yl)-N,2-dimethylpropanamide] | 5 to 10 | 5 to 10 | 1 to 5 | 1 to 5 | 1.1 to 2 (≈ 1.97 to 3.58 µM) | 0.25 to 1 (≈ 0.448 to 1.79 µM) | 2.1 to 4 (≈ 3.76 to 7.16 µM) | 2.01 to 4 (≈ 3.6 to 7.16 µM) | 2 (≈ 3.58 µM) | 2 (≈ 3.58 µM) | A (compound concentration of 0.4 ppm at 90% inhibition of fungal pathogens) | 0.4 (≈ 0.716 µM) | 0.4 (≈ 0.716 µM) | 0.4 (≈ 0.716 µM) | > 50 | > 50 | 2 (≈ 3.58 µM) | 10 (≈ 17.9 µM) | > 50 | > 50 | 
